# Results taken from PubChem BioAssay AID1996.
# Conditions: buffer; pH 7.4; 200.0 µM
row,Structure (SMILES),solubility kinetic [µg/mL]
1,NC(=O)CN1CCCC1c1ccc2c(c1)OCCO2 (stereo unspecified),> 39.3
2,N#CC1=C(N)Oc2c(c(=O)sc3ccccc23)C1c1ccncc1 (stereo unspecified),3.6
3,N#CC1CN(Cc2ccccc2)CN(Cc2ccccc2)C1,32.9
4,CC(=O)c1ccc(N2CCN(C(=O)c3ccc4[nH]c(C)c(C)c4c3)CC2)cc1,1.6
5,Cc1ccc2nc(SCC(=O)Nc3nonc3N)[nH]c2c1,39
6,Cc1cc(NC(=O)Cn2cnc3sc(C)c(C)c3c2=O)no1,17.3
7,C=CCn1c(SCC(=O)Nc2sc3c(c2C#N)CCC(C)C3)nc2cc(C(=O)O)ccc2c1=O (stereo unspecified),15
8,c1ccc2c(c1)[nH]c1cnccc12,> 25.2
9,Cc1ccc(N2C(=NC(=O)c3ccccc3)SC3CS(=O)(=O)CC32)cc1 (stereo unspecified),< 0.4
10,Cc1ccc2c(CC(=O)NC3CCS(=O)(=O)C3)coc2c1C (stereo unspecified),> 48.2
11,CC1CCN(C(=O)c2ccc(N3CCOCC3)c([N+](=O)[O-])c2)CC1,> 50
12,Cc1ccc(OCC(=O)N2CCCCCCC2)cc1C,22.6
13,COc1ccc(N2CCN(c3cc(C)c4ccc(C)cc4n3)CC2)cc1,1.1
14,Cc1cc2c(OCC(O)CNCc3ccco3)cccc2[nH]1 (stereo unspecified),43.4
15,O=C(NC1CC2CCCC(C1)N2Cc1ccc(F)cc1)c1ccc(F)cc1 (stereo unspecified),> 55.6
16,O=c1cc([O-])n(C2CCCCCC2)c(=O)[nH]1.[NH4+],30
17,CCCCN1CC2=C(C1=O)C(c1ccc(O)cc1)NC(=O)N2C (stereo unspecified),> 47.3
18,CCOC(=O)Cc1ccc(NC(=O)c2ccc([N+](=O)[O-])cc2)cc1,1
19,Cc1cc(C(=O)N2CCN(c3ccc([N+](=O)[O-])cc3)CC2)c(C)o1,20.3
20,Cc1ccc(-c2nc(=S)c3c(n2Cc2cccnc2)CC(C)(C)OC3)cc1,> 56.6
21,O=[N+]([O-])c1ccc(Sc2n[nH]c(-c3ccncc3)n2)nc1,> 45
22,CC(=O)Nc1cc2c(cc1[N+](=O)[O-])OCCO2,> 35.7
23,Cc1nc(C)c(N)c(=O)[nH]1.Cl,> 26.3
24,O=C(/C=C/c1ccc(Cl)c(Cl)c1)NCCCn1ccnc1,38.8
25,NC(=O)c1nn(CC(=O)Nc2ccc3c(c2)OCO3)cc1[N+](=O)[O-],> 50
26,Cn1ncc(Br)c1C(=O)N1CCCC1,> 38.7
27,CC(C)(C)NC(=O)COc1ccc(CNc2ccc3[nH]c(=O)[nH]c3c2)cc1,0.8
28,CCc1ccc(/C=C2\SC(N3CCOCC3)=NC2=O)cc1,24.9

# Next, values leading:
row,solubility kinetic [µg/mL],Structure (SMILES)
1,> 49.2,O=C(Cc1ccccc1)NCC(=O)OCc1cccc([N+](=O)[O-])c1
2,> 36.9,Cc1nnc(Nc2ccc(C(=O)O)cc2)[nH]c1=O
3,> 47.7,O=C(NNC(=S)NC(=O)c1ccc(F)cc1)c1cccnc1
4,1,CSc1nc(C)c(Cc2c(F)cccc2Cl)c(=O)[nH]1
5,1,CC(=O)c1cccc(NC(=S)NC(=O)c2ccccc2C)c1
6,> 47.3,CCCn1c(C)c(C(=O)OCC)c(O)c(-c2ccccc2)c1=O
7,3.3,Cc1ccsc1CN(C)C(=O)c1ccc(Oc2ccccc2)cc1
8,> 44.4,CCN(CC(=O)Nc1c(F)cccc1F)C(=O)C1CC1C (stereo unspecified)
9,> 42.6,C=CCNC(=O)COC(=O)COc1ccc(Cl)cc1
10,11.2,O=S(=O)(c1ccccc1F)N1CCCc2ccccc21
11,25.4,CN(CC(=O)Nc1ccc(Br)cc1)Cc1ccccc1
12,53,CC(C)(C)c1ccc(OCC(=O)NCCN2CCOCC2)cc1.Cl
13,31.6,O=S(=O)(NC1CCCCC1)c1cccc2nsnc12
14,< 0.2,COc1ccc(CCn2cnc3c([nH]c4ccccc43)c2=O)cc1
15,52.4,COC(=O)CN1C(=O)COc2ccc(S(=O)(=O)N3CCCCCC3)cc21
16,34.7,CCN(C(=O)N1CCOCC1)c1ccccc1
17,> 44.1,Cc1c(C(=O)O)c(=O)n(-c2ccccc2)n1-c1ccccc1

row,solubility kinetic [µg/mL],Structure (SMILES)
1,2.9,Cc1ccc(C)c(SCC(=O)Nc2cccnc2Cl)c1
2,> 49,O=C(CN1C(=O)NC2(CCc3ccccc32)C1=O)c1cccs1 (stereo unspecified)
3,0.8,CC(C)(C)c1cc(-c2ccccc2)no1
4,> 49.3,O=C(O)c1cccnc1SC1CC(=O)N(c2ccccc2)C1=O (stereo unspecified)
5,41.4,O=c1oc2ccccc2c(Cl)c1CN1CCCCC1
6,35.6,CC(C)(C)NC(=O)c1ccccc1-c1nc2ccccc2s1
7,45.1,CC(=O)c1ccc(S(=O)(=O)NC2CCCCCCC2)cc1
8,> 47.8,C/C(=N\OCC(=O)Nc1ccccc1C(=O)O)c1cccs1
9,> 70.4,Cc1ccccc1-n1ccnc1SCC(=O)Nc1cccc(S(=O)(=O)NC2=NCCC2)c1
10,> 45.7,COc1cccc(S(=O)(=O)c2nc(C)c3c(n2)CCC3)c1
11,5.4,CCCCOC(=O)CSc1nc2ccccc2o1
12,> 36.2,Cc1cccc(NC(=O)Nc2cccnc2)c1C
13,31.3,Cc1c(O)nc2sc3ccccc3n2c1=O
14,30.2,CN(C)S(=O)(=O)Nc1ccccc1F
15,< 0.2,Cc1cccn2c(=O)c(/C=N/O)c(NCc3ccccc3)nc12
16,10.4,Cc1ccsc1C(=O)OCC(=O)NCCc1ccccc1
